In patent US20160068527A1, “The Treatment of Inflammatory Disorders” (CRESSET BIOMOLECULAR DISCOVERY LTD., priority 2013, published 2016):

Legend:
[1] = test system: human mast cells; test: Release of Annexin-A1 from human mast cells (ELISA); format: cell-based; conditions: increasing concentrations of Nalidixic acid, conditioned medium, FIG. 3
Description: Human cord derived mast cells were cultured using the methodology described in Example 1. Anx-A1 protein levels in conditioned medium were determined by ELISA. Briefly, 96-well flat-bottomed ELISA plates (Greiner, Gloucestershire, UK) were coated with 1 μg anti-Anx-A1 mAb 1B in bicarbonate buffer (pH 9.6) and incubated overnight at 4° C. After washing in the bicarbonate buffer, potentially uncoated sites were blocked with 100 μL of PBS containing 1% BSA for 1h at room temperature. Sample aliquots (100 μL) or Anx-A1 standard solutions (prepared in 0.1% Tween-20 in PBS; concentration ranging between 10 and 0.001 μg/mL) were added for 1h at 37° C. After extensive washing in PBS/Tween-20, 100 μL of a polyclonal rabbit anti-human Anx-A1 serum (Zymed, Invitrogen, Paisley, UK; diluted 1:1000 in PBS/Tween-20) was added (1h at 37° C.) prior to incubation with donkey anti-rabbit 1 gG conjugated to alkaline phosphatase (1:1000; Sigma). The colour was developed by addition of 100 μL p-nitrophenyl phosphate (1 mg/mL in bicarbonate buffer, pH 9.6). Absorbance was read at 405 nm (with a 620-nm reference filter) in a microplate reader (Titertek™, Vienna, Austria). Anx-A1 levels in the study samples were read against the standard curve and expressed as ng/ml.

[2] = test system: human mast cells; test: Inhibition of histamine release from human mast cells; format: cell-based; conditions: IgE challenged human cord derived mast cells, 5 min incubation, FIG. 1
Description: Protocol: Human derived cord mast cells were cultured using the following method. Commercially available CD34^+ stem cells were cultured for […] in StemSpan (StemCell Technologies, Grenoble, France) serum-free medium supplemented with 100 ng/ml human SCF, 50 ng/ml IL-6 and 1 ng/ml IL-3, and 100 μg/ml penicillin/streptomycin (Peprotech, London, UK). After eight weeks, cells were cultured in StemSpan with 10% FCS. The cells were passaged into new medium every week. Cells were used for experiments between 11 and 18 weeks following confirmation by microscopic examination, c-kit and FcRε1 staining (by FACS), of mast cell morphology. For assessment of drug effects, Nalidixic Acid was incubated for 5 min with aliquots of 2×10^5 CDMCs (cord derived mast cells) cultured in 10% FCS medium. A commercially-available enzyme immunoassay was used to detect and quantify histamine released in the supernatant (SPI bio, Strasbourg, France). The assay was conducted following the manufacturer protocols. A standard curve ranging from 0.39-50 nM histamine was prepared using the reagent provided and the optical density was then read within 60 min in a microplate reader (at 405 nm). In some cases, the total cell content of histamine was established by freeze thawing of cells prior to challenge

[3] = test system: ovalbumin induced murine model of asthma; test: Ovalbumin induced murine model of asthma, BALF eosinophils; format: in vivo, mouse; conditions: female BALB/c mice, 0.3 mg/kg intranasal, OVA challenge
Description: The effects of locally administered Nalidixic acid were studied in a mouse model of asthma. Female BALB/c mice, 8 animals per group, were sensitised to ovalbumin (OVA, 10 mg) by intra-peritoneal injection on days 1 and 14 of the study. On days 20, 21, 22 and 23 animals either received a challenge dose of ovalbumin (50 μg) to the lung given by intranasal administration or 50 μl of phosphate buffered saline (PBS, non-challenged group). Animals challenged with OVA also received either PBS vehicle or Nalidixic acid (0.3 mg/kg of body weight) given by intranasal administration for inhalation into the lung. This was administered 30 minutes prior to and 6 hours post each ovalbumin challenge on days 21 to 23 and in addition on day 24, the day between the last challenge and the terminal day of the experiment. Forty-eight hours after the final OVA challenge, mice were anaesthetised with a combination of ketamine hydrochloride (Narketan, 2 mg/mouse) and xylazine hydrochloride (Rompun, 0.07 mg/mice) and sacrificed by carotid exsanguination.
Bronchoalveolar lavage fluid (BAL) was obtained as follows. The trachea was cannulated. Phosphate Buffered Saline (PBS) was used as the lavage fluid, 3 volumes (0.4 ml; 0.3 ml; 0.3 ml; total 1 mL) were gently instilled and withdrawn on 3 consecutive occasions using a 1 ml BD syringe and then placed in an Eppendorf tube (˜1 ml). […]

[4] = biological target: phosphatase PP2A (Homo sapiens, UniProt P67775); test: Inhibition of the phosphatase PP2A; format: biochemical; conditions: statement in summary, no method or data
[5] = test system: human mast cells; test: Inhibition of Prostaglandin D2 release from human mast cells; format: cell-based; conditions: IgE challenged human cord derived mast cells, FIG. 2
Description: Human cord derived mast cells were cultured using the methodology described in Example 1. A commercially-available enzyme immunoassay (Cayman Chemical, Michigan, USA) was used to detect and quantify PGD2 released in the supernatant. The assay was conducted following the manufacturer protocols. A standard curve ranging from 78-10,000 pg/ml PGD2 was prepared using the reagent provided and the optical density was then read within 60 min in a microplate reader (at 405 nm).

phosphatase PP2A, sequence (P67775 whole entry): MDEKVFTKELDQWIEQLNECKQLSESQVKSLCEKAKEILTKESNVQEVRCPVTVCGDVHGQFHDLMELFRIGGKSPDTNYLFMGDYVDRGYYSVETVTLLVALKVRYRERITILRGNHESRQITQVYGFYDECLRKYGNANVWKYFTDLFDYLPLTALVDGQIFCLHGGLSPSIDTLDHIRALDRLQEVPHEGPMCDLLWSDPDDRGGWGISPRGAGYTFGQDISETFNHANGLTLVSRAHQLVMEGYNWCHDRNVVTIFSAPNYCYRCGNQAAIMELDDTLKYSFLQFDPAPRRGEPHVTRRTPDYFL

With `CCn1cc(C(=O)O)c(=O)c2ccc(C)nc21` [Nalidixic acid] as the compound, how does the “Annexin-A1 released from human mast cells” value [1] read?
Its value is “increase”.

What about the “inhibition of histamine release” value [2] of the same compound?
Its value is “dose related inhibition”.

What about the “decrease in total BALF eosinophil counts compared with challenged vehicle treated animals” value ([3]; p<0.05, FIG. 4) of the same compound?
The value was 47%.

What about the “reduction of percentage of eosinophils of the total BALF cellular count versus vehicle treated group” value ([3]; p<0.05, FIG. 5) of the same compound?
Its value is 44%.

And the “inhibition of the phosphatase PP2A” value [4]?
Its value is “potent inhibitors”.

What about the “inhibition of PGD2 release” value [5] of the same compound?
The value was “dose related inhibition”.
